Laboratory results reported in US10995068B2, “Synthetic sphingolipid-like molecules, drugs, methods of their synthesis and methods of treatment” (The Regents of the University of California, priority 2015, dated 2021).

What was measured:
[1] = tested on: murine hematopoietic cell line FL5.12; assay: Viability of FL5.12 cells by vital dye exclusion; type: cell-based; settings: FL5.12 cells, 48 h, vital dye exclusion; n ≥3; read-out: IC50 (μM) [95% CI]
Protocol: (§1) Cell culture studies: FL5.12 cells (murine hematopoetic cells originally obtained from Craig Thompson, Memorial Sloan Kettering Cancer Center) were maintained at 0.1-0.5 million/ml in RPMI 1640 (Mediatech) supplemented with 10% fetal calf serum (FCS, Sigma-Aldrich), 10 mM Hepes (Mediatech), 500 pg/ml recombinant IL-3 (cat #575502, Biolegend), 55 μM β-mercaptoethanol (Sigma-Aldrich), 2 mM L-glutamine (Mediatech), and antibiotics. Cells were screened for Mycoplasma every 3 months using the Look-Out Mycoplasma PCR Detection kit (cat #MP0035, Sigma).
IC50 values were calculated using GraphPad Prism (GraphPad Software, Inc, La Jolla, Calif.).

CD98 (4F2hc, SLC3A2) = assay: Surface CD98 nutrient transporter down-regulation by flow cytometry; type: cell-based, murine; settings: FL5.12 cells
Excerpt: (§2) In an exemplified study, nutrient transporter down-regulation was monitored by quantifying surface levels of the amino acid transporter-associated protein, CD98, by flow cytometry. Vacuolation was scored in a range from 0 to […], as determined by a vacuolation assay described in greater detail in the Materials and Methods section below.
as §1
Nutrient transporter expression: Surface CD98 (4F2hc, SLC3A2) expression was measured at 3 h using phycoerythrin (PE)-conjugated rat anti-mouse CD98 antibody (Biolegend, cat #128208); analysis was restricted to viable cells. PE conjugated Rat IgG2a, k (cat #400508, Biolegend) was used as an isotype control. For staining, 200,000 cells were pelleted, re-suspended in 100 μl FACS block (PBS with 10% FCS and 0.05% NaN3) containing 0.25 μL anti-CD98 antibody, incubated on ice for 30 min, washed twice with 1 ml FACS wash (PBS containing 2% FCS and 0.05% NaN3), and analyzed on a BD LSR II flow cytometer. Data was processed with FlowJo software (Treestar).

FL5.12 cells = assay: Vacuolation assay; type: cell-based, murine; set-up: key to Vacuolation score: 0-100 score: (3×%cat3+2×%cat2+1×%cat1)/3; cells graded 0-3 for vacuoles; settings: FL5.12 cells
Protocol: as §2
Vacuolation assay: Cells were evaluated at 100× using brightfield microscopy and a Nikon TE2000-S fluorescence microscope equipped with DIC filters. Vacuolation was quantified after a 3 h incubation period in 2.5 μM compound except where otherwise indicated. To calculate a vacuolation score, vacuolation severity in at least 15 individual cells/experiment was assessed qualitatively. Scores were assigned to individual cells as follows: 0=no vacuoles, 1=very small vacuoles, 2=multiple well-defined vacuoles, 3=multiple large vacuoles. To calculate the vacuolation score associated with a compound, the following formula was used: vacuolation score=[(3×% cells in category 3)+(2×% cells in category 2)+(1×% cells in category 1)]/3.
The score is divided by 3 so that a compound with 100% of its cells in category 3 would have a vacuolation score of 100. Three independent experiments were conducted and the vacuolation scores averaged to generate a mean+/−SEM. All cells were scored by one lab member after confirming that a blinded individual scored 5 compounds with similar results.

PP2A = PP2A phosphatase activity; type: biochemical, murine; settings: PP2A immunoprecipitated from FL5.12 cell lysates, phosphopeptide dephosphorylation
Excerpt: Furthermore, many embodiments of the invention are directed to azacyclic constrained sphingolipid-like molecules inducing internalization of nutrient transporters via a mechanism that activates PP2A. […] Thus, activation of PP2A is very peculiar to certain sphingolipid structures. Activation of PP2A by FTY720 and SH-BC-893 also stimulated vacuolation, and as the PP2A inhibitors calyculin A and SV40 small t antigen, each blocked this effect (FIG. 59C). Of note, YM201636-induced vacuolation was unaffected by PP2A inhibition (FIG. 60B). In addition, inhibiting PP2A restored PIKfyve to the proper location within vacuoles in cells treated with FTY720 or SH-BC-893 (FIG. 57D).
PP2A phosphatase activity. PP2A activity was measured using a PP2A immunoprecipitation phosphatase assay kit (EMD Millipore). Briefly, the catalytic subunit of PP2A was immunoprecipitated from FL5.12 cell lysates with 4 μg anti-PP2A, C subunit. After four washes, the activity of immunoprecipitated PP2A was assessed by dephosphorylation of the phosphopeptide according to the manufacturer's instructions in the presence or absence of C2-ceramide, dihydro-C2-ceramide, FTY720, SH-BC-893, or calyculinA.

CCCCCCCCCCCCC/C=C/[C@@H](O)[C@H](CO)NC(C)=O [Compound 109, C2-ceramide, reference compound]
IC50 [1]: 33 µM
concentration required to cause similar transporter loss (CD98 (4F2hc, SLC3A2); CD98 loss): 50 µM
% CD98 down-regulation (CD98 (4F2hc, SLC3A2); surface CD98 at 3 h, flow cytometry, mean ± SEM, n ≥3): 47 ± 3%
Vacuolation score (FL5.12 cells; 3 h in 2.5 μM compound except where otherwise indicated, mean ± SEM, n ≥3): 0
vacuolation (in words) (FL5.12 cells; at any dose / highest dose tested): did not cause vacuolation
PP2A activation (PP2A): activating PP2A
